Test results taken from ChEMBL document CHEMBL5380820, “Design and Discovery of Novel Cyclic Peptides as EDPs-EBP Interaction Inhibitors for the Treatment of Liver Fibrosis” (J Med Chem, 2023).
The source made the active and inactive calls. The calls are words filed in the database; no cut-off is given here. Where a SMILES comes first, the peptide text is derived from it. Bridges are numbered along the chain shown (N, C = ends). [ ]: non-standard residue; d: D form. Aib = CC(C)(N)C(=O)O

Columns and labels:
Mus musculus [1] = assay: Antifibrotic activity in CCl4-induced C57BL/6 mouse model of liver fibrosis assessed as reduction in serum ALT level treated at 150 ug/kg, ip daily for 3 weeks; format: functional, organism-based; settings: dose 150.0 µg/kg
Mus musculus [2] = assay: Antifibrotic activity in CCl4-induced C57BL/6 mouse model of liver fibrosis assessed as reduction in serum AST level treated at 150 ug/kg, ip daily for 3 weeks; format: functional, organism-based; settings: dose 150.0 µg/kg
LX-2 [3] = assay: Antifibrotic activity against TGF-beta induced human LX2 cells assessed as inhibition of neuraminidase activity using NA fluorogenic substrate by measuring fluorescence intensity relative to control; format: functional
LX-2 [4] = assay: Antifibrotic activity against TGF-beta induced human LX2 cells assessed as inhibition of alpha-SMA expression by measuring fluorescence intensity relative to control; format: functional
LX-2 [5] = assay: Antifibrotic activity against TGF-beta induced human LX2 cells assessed as inhibition of collagen I expression by measuring fluorescence intensity relative to control; format: functional
LX-2 [6] = assay: Antifibrotic activity against TGF-beta induced human LX2 cells assessed as reduction of alpha-SMA expression measured at 10 uM for 24 hrs by measuring fluorescence intensity relative to control; format: functional; design: scale not given: the % may be the effect or the level left
LX-2 [7] = assay: Antifibrotic activity against TGF-beta induced human LX2 cells assessed as reduction of collagen I expression measured at 10 uM for 24 hrs by measuring fluorescence intensity relative to control; format: functional; design: scale not given: the % may be the effect or the level left
LX2 [8] = assay: Inhibition of elastin receptor complex elastin binding protein subunit in human LX2 cells assessed as inhibition of EDP induced ERK phosphorylation treated at 10 uM for 24 hrs by Western blot analysis; format: cell-based
LX2 [9] = assay: Inhibition of elastin receptor complex elastin binding protein subunit in human LX2 cells assessed as inhibition of EDP induced PI3K phosphorylation treated at 10 uM for 24 hrs by Western blot analysis; format: cell-based
LX2 [10] = assay: Inhibition of elastin receptor complex elastin binding protein subunit in human LX2 cells assessed as inhibition of EDP induced AMPK phosphorylation treated at 10 uM for 24 hrs by Western blot analysis; format: cell-based
LX-2 [11] = assay: Antifibrotic activity against TGF-beta induced human LX2 cells assessed as reduction of alpha-SMA expression measured at 10 uM for 24 hrs by measuring fluorescence intensity; format: functional, cell-based
LX-2 [12] = assay: Antifibrotic activity against TGF-beta induced human LX2 cells assessed as reduction of collagen I expression measured at 10 uM for 24 hrs by measuring fluorescence intensity; format: functional, cell-based
LX-2 [13] = assay: Antifibrotic activity against TGF-beta induced human LX2 cells assessed as inhibition of neuraminidase activity using NA fluorogenic substrate measured at 10 uM for 24 hrs by measuring fluorescence intensity; format: functional, cell-based

| Molecule | inhibition (INH) (LX-2 [3]) [%] | inhibition (INH) (LX-2 [4]) [%] | inhibition (INH) (LX-2 [5]) [%] | Activity (LX-2 [11]) | further results |
| --- | --- | --- | --- | --- | --- |
| Cc1ccc(=O)n(-c2ccccc2)c1 |  |  |  |  | Activity (Mus musculus [1]): Active; Activity (Mus musculus [2]): Active |
| CC(C)C[C@H](NC(=O)[C@@H]1CCCN1C(=O)[C@H](CO)NC(=O)[C@H](C)NC(=O)[C@H](CCC(=O)O)NC(=O)[C@@H]1CC(=O)N[C@@H](C(C)C)C(=O)N[C@@H](C(C)C)C(=O)NCC(=O)N[C@@H](CO)C(=O)N2CCC[C@H]2C(=O)N[C@@H](CO)C(=O)N[C@@H](C)C(=O)N[C@@H](CCC(N)=O)C(=O)N1)C(=O)O (VVGSPSAQDEASPL-OH; lactam N-9) | 62.2 | 39 | 36.1 |  | Activity (LX-2 [6]): ~50%; Activity (LX-2 [7]): ~50%; inhibition (LX2 [8]): Active; inhibition (LX2 [9]): Active; inhibition (LX2 [10]): Active |
| CC(C)C[C@@H]1NC(=O)[C@@H]2CCCN2C(=O)[C@H](CO)NC(=O)[C@H](C)NC(=O)[C@H](CCC(=O)O)NC(=O)[C@H](CC(=O)O)NC(=O)[C@H](CCC(N)=O)NC(=O)[C@H](C)NC(=O)[C@H](CO)NC(=O)[C@@H]2CCCN2C(=O)[C@H](CO)NC(=O)CNC(=O)[C@H](C)NC(=O)[C@H](C(C)C)NC1=O (cyclo(AGSPSAQDEASPLV)) | 44 | 11.5 | 0.9 |  |  |
| CC(C)C[C@@H]1NC(=O)[C@H](C(C)C)NC(=O)[C@H](C)NC(=O)[C@@H]2CCCN2C(=O)[C@H](CO)NC(=O)[C@H](C)NC(=O)[C@H](CCC(=O)O)NC(=O)[C@H](CC(=O)O)NC(=O)[C@H](CCC(N)=O)NC(=O)[C@H](C)NC(=O)[C@H](CO)NC(=O)[C@@H]2CCCN2C(=O)[C@H](CO)NC(=O)CNC1=O (cyclo(AQDEASPAVLGSPS)) | 42.2 | 20.7 | 1.6 |  |  |
| CC(C)[C@@H]1NC(=O)CNC(=O)[C@@H]2CCCN2C(=O)[C@H](CO)NC(=O)[C@H](C)NC(=O)[C@H](CCC(=O)O)NC(=O)[C@H](CC(=O)O)NC(=O)[C@H](CCC(N)=O)NC(=O)[C@H](C)NC(=O)[C@H](CS)NC(=O)[C@@H]2CCCN2C(=O)[C@H](CO)NC(=O)CNC(=O)[C@H](C(C)C)NC1=O (cyclo(AQDEASPGVVGSPC)) | 36.4 | 5.3 | 12.3 |  |  |
| CC(C)[C@@H]1NC(=O)CNC(=O)[C@@H]2CCCN2C(=O)[C@H](CO)NC(=O)[C@H](C)NC(=O)[C@H](CCC(=O)O)NC(=O)[C@H](CC(=O)O)NC(=O)[C@H](CCC(N)=O)NC(=O)[C@H](C)NC(=O)[C@H](CC(=O)O)NC(=O)[C@@H]2CCCN2C(=O)[C@H](CO)NC(=O)CNC(=O)[C@H](C(C)C)NC1=O (cyclo(AQDEASPGVVGSPD)) | 49.5 | 17.6 | 2.2 |  |  |
| CC(C)[C@@H]1NC(=O)CNC(=O)[C@@H]2CCCN2C(=O)[C@H](CO)NC(=O)[C@H](C)NC(=O)[C@H](CCC(=O)O)NC(=O)[C@H](CC(=O)O)NC(=O)[C@H](CCC(N)=O)NC(=O)[C@H](C)NC(=O)CNC(=O)[C@@H]2CCCN2C(=O)[C@H](CO)NC(=O)CNC(=O)[C@H](C(C)C)NC1=O (cyclo(AQDEASPGVVGSPG)) | 2.6 | 5.3 | 8.5 |  |  |
| CC(C)C[C@@H]1NC(=O)[C@H](C(C)C)NC(=O)[C@H](CC(C)C)NC(=O)[C@@H]2CCCN2C(=O)[C@H](CO)NC(=O)[C@H](C)NC(=O)[C@H](CCC(=O)O)NC(=O)[C@H](CC(=O)O)NC(=O)[C@H](CCC(N)=O)NC(=O)[C@H](C)NC(=O)[C@H](CO)NC(=O)[C@@H]2CCCN2C(=O)[C@H](CO)NC(=O)CNC1=O (cyclo(AQDEASPLVLGSPS)) | 27.4 |  |  |  | inhibition (LX-2 [4]): inactive; inhibition (LX-2 [5]): inactive |
| CC(C)C[C@@H]1NC(=O)[C@@H]2CCCN2C(=O)[C@H](CO)NC(=O)[C@H](C)NC(=O)[C@H](CCC(=O)O)NC(=O)[C@H](CC(=O)O)NC(=O)[C@H](CCC(N)=O)NC(=O)[C@H](C)NC(=O)[C@H](CCCCN)NC(=O)[C@@H]2CCCN2C(=O)[C@H](CO)NC(=O)CNC(=O)[C@H](C(C)C)NC(=O)[C@H](C(C)C)NC1=O (cyclo(AQDEASPLVVGSPK)) | 30 | 2.8 | 1.7 |  |  |
| CC(C)C[C@@H]1NC(=O)[C@@H]2CCCN2C(=O)[C@H](CO)NC(=O)CNC(=O)[C@H](C(C)C)NC(=O)[C@H](C(C)C)NC(=O)[C@H](CC(C)C)NC(=O)[C@@H]2CCCN2C(=O)[C@H](CO)NC(=O)[C@H](C)NC(=O)[C@H](CCC(=O)O)NC(=O)[C@H](CC(=O)O)NC(=O)[C@H](CCC(N)=O)NC(=O)[C@H](C)NC1=O (cyclo(AQDEASPLVVGSPL)) | 9 | 1.7 | 9.8 |  | Activity (Mus musculus [1]): Active; Activity (Mus musculus [2]): Active |
| CC(C)C[C@@H]1NC(=O)[C@@H]2CCCN2C(=O)[C@H](CO)NC(=O)[C@H](C)NC(=O)[C@H](CCC(=O)O)NC(=O)[C@H](CC(=O)O)NC(=O)[C@H](CCC(N)=O)NC(=O)[C@H](C)NC(=O)[C@H]([C@@H](C)O)NC(=O)[C@@H]2CCCN2C(=O)[C@H](CO)NC(=O)CNC(=O)[C@H](C(C)C)NC(=O)[C@H](C(C)C)NC1=O (cyclo(AQDEASPLVVGSPT)) | 27 | 9.9 | 13.9 |  |  |
| CC(C)C[C@@H]1NC(=O)[C@@H]2CCCN2C(=O)[C@H](CO)NC(=O)C(C)(C)NC(=O)[C@H](CCC(=O)O)NC(=O)[C@H](CC(=O)O)NC(=O)[C@H](CCC(N)=O)NC(=O)[C@H](C)NC(=O)[C@H](CO)NC(=O)[C@@H]2CCCN2C(=O)[C@H](CO)NC(=O)CNC(=O)[C@H](C(C)C)NC(=O)[C@H](C(C)C)NC1=O (cyclo(AQDE[Aib]SPLVVGSPS)) | 35 | 5.2 |  |  | inhibition (LX-2 [5]): inactive |
| CC(C)C[C@@H]1NC(=O)[C@@H]2CCCN2C(=O)[C@H](CO)NC(=O)[C@H](C)NC(=O)[C@H](CCC(=O)O)NC(=O)[C@H](CC(=O)O)NC(=O)[C@H](CCC(N)=O)NC(=O)C(C)(C)NC(=O)[C@H](CO)NC(=O)[C@@H]2CCCN2C(=O)[C@H](CO)NC(=O)CNC(=O)[C@H](C(C)C)NC(=O)[C@H](C(C)C)NC1=O (cyclo(ASPLVVGSPS[Aib]QDE)) | 75 | 24.1 | 26.8 |  | Activity (LX-2 [6]): ~50%; Activity (LX-2 [7]): ~50%; inhibition (LX2 [8]): Active; inhibition (LX2 [9]): Active; inhibition (LX2 [10]): Active |
| H-AVGSPSAQDEASPL-NH2 | 31.2 | 3.9 | 6.2 |  |  |
| H-VAGSPSAQDEASPL-NH2 | 60 | 26.4 | 28 | Active | Activity (LX-2 [12]): Active |
| H-VVASPSAQDEASPL-NH2 | 26.8 |  | 6.9 | inactive | inhibition (LX-2 [4]): inactive; Activity (LX-2 [13]): inactive; Activity (LX-2 [12]): inactive |
| H-VVGAPSAQDEASPL-NH2 | 26.7 |  | 5.9 | inactive | inhibition (LX-2 [4]): inactive; Activity (LX-2 [13]): inactive; Activity (LX-2 [12]): inactive |
| H-VVGSASAQDEASPL-NH2 | 24.4 | 3.6 | 7.5 | Active |  |
| H-VVGSPAAQDEASPL-NH2 | 55.3 | 33.4 | 34.6 |  | Activity (LX-2 [12]): Active |
| H-VVGSPSAADEASPL-NH2 | 19.1 | 10.6 | 11.8 | inactive | Activity (LX-2 [13]): inactive; Activity (LX-2 [12]): inactive |
| H-VVGSPSAQAEASPL-NH2 | 33.4 | 7.1 | 5.2 | Active |  |
| H-VVGSPSAQDAASPL-NH2 | 20.7 |  | 17.6 | Active | inhibition (LX-2 [4]): inactive |
| H-VVGSPSAQDEAAPL-NH2 | 28.6 | 11.3 | 21.7 | Active |  |
| H-VVGSPSAQDEASAL-NH2 | 23.9 | 18.5 | 20.6 | inactive | Activity (LX-2 [13]): inactive; Activity (LX-2 [12]): inactive |
| H-VVGSPSAQDEASPA-NH2 | 54.7 | 38.7 | 34.6 | Active | Activity (LX-2 [12]): Active |
